Experiment: Amounts of antibiotic components in the solution over time (reverse-phase LC/UV for β-lactams and β-lactamase inhibitors, HPLC/evaporation-light-scattering for aminoglycosides)
Assay type: physicochemical
Procedure: The amounts of β-lactam antibiotics and β-lactamase inhibitor were determined using C18 reverse-phase LC and UV-VIS detector (Tianjin […] Co., Ltd., analysis method No. HM-K-03). The content of aminoglycoside antibiotics was measured using reverse-phase HPLC and evaporation-light-scattering detector (Tianjin […] Co., Ltd., analysis method No. HM-K-08). […] The relative amount of each antibiotic component in the composition at each time point was expressed as peak area ratio with respect to the corresponding peak area of an external standard.

[1] = Example 11: solution of Example 10 freeze-dried, stored 7 days at 0° C., redissolved, pH 6.0, etimicin sulfate and disodium EDTA added, 0 h
[2] = Example 11: solution of Example 10 freeze-dried, stored 7 days at 0° C., redissolved, pH 6.0, etimicin sulfate and disodium EDTA added, 1 h
[3] = Example 11: solution of Example 10 freeze-dried, stored 7 days at 0° C., redissolved, pH 6.0, etimicin sulfate and disodium EDTA added, 2 h
[4] = Example 11: solution of Example 10 freeze-dried, stored 7 days at 0° C., redissolved, pH 6.0, etimicin sulfate and disodium EDTA added, 4 h
[5] = Example 11: solution of Example 10 freeze-dried, stored 7 days at 0° C., redissolved, pH 6.0, etimicin sulfate and disodium EDTA added, 6 h
[6] = Example 11: solution of Example 10 freeze-dried, stored 7 days at 0° C., redissolved, pH 6.0, etimicin sulfate and disodium EDTA added, 8 h
[7] = Example 12: thawed solution from Example 10, pH 6.0, amikacin sulfate added, no EDTA, 0 h
[8] = Example 12: thawed solution from Example 10, pH 6.0, amikacin sulfate added, no EDTA, 1 h
[9] = Example 12: thawed solution from Example 10, pH 6.0, amikacin sulfate added, no EDTA, 2 h
[10] = Example 12: thawed solution from Example 10, pH 6.0, amikacin sulfate added, no EDTA, 4 h
[11] = Example 12: thawed solution from Example 10, pH 6.0, amikacin sulfate added, no EDTA, 6 h
[12] = Example 12: thawed solution from Example 10, pH 6.0, amikacin sulfate added, no EDTA, 8 h
[13] = Example 7 solution (ceftriaxone sodium, sulbactam sodium, etimicin sulfate, disodium EDTA, sodium citrate pH 6.5), room temperature, 0 h
[14] = Example 7 solution (ceftriaxone sodium, sulbactam sodium, etimicin sulfate, disodium EDTA, sodium citrate pH 6.5), room temperature, 1 h
[15] = Example 7 solution (ceftriaxone sodium, sulbactam sodium, etimicin sulfate, disodium EDTA, sodium citrate pH 6.5), room temperature, 2 h
[16] = Example 7 solution (ceftriaxone sodium, sulbactam sodium, etimicin sulfate, disodium EDTA, sodium citrate pH 6.5), room temperature, 4 h
[17] = Example 7 solution (ceftriaxone sodium, sulbactam sodium, etimicin sulfate, disodium EDTA, sodium citrate pH 6.5), room temperature, 6 h
[18] = Example 7 solution (ceftriaxone sodium, sulbactam sodium, etimicin sulfate, disodium EDTA, sodium citrate pH 6.5), room temperature, 8 h

Row | Compound | Amount of component, percentage of amount at initial time [1] [%] | Amount of component, percentage of amount at initial time [2] [%] | Amount of component, percentage of amount at initial time [3] [%] | Amount of component, percentage of amount at initial time [4] [%] | Amount of component, percentage of amount at initial time [5] [%] | Amount of component, percentage of amount at initial time [6] [%] | Amount of component, percentage of amount at initial time [7] [%] | Amount of component, percentage of amount at initial time [8] [%] | Amount of component, percentage of amount at initial time [9] [%] | Amount of component, percentage of amount at initial time [10] [%] | Amount of component, percentage of amount at initial time [11] [%] | Amount of component, percentage of amount at initial time [12] [%] | Amount of component, percentage of amount at initial time [13] [%] | Amount of component, percentage of amount at initial time [14] [%] | Amount of component, percentage of amount at initial time [15] [%] | Amount of component, percentage of amount at initial time [16] [%] | Amount of component, percentage of amount at initial time [17] [%] | Amount of component, percentage of amount at initial time [18] [%] | further results
1 | CCN1CCN(C(=O)N[C@@H](C(=O)N[C@@H]2C(=O)N3[C@@H]2SC(C)(C)[C@@H]3C(=O)O)c2ccccc2)C(=O)C1=O [Piperacillin, piperacillin] | 101.8 | 101.3 | 101.8 | 101.2 | 98.3 | 95.1 | 101.8 | 101.3 | 101.8 | 101.2 | 98.3 | 95.1 |  |  |  |  |  |  | Amount of component, percentage of amount at initial time (Example 10: piperacillin sodium/sulbactam sodium solution cryopreserved 7 days, thawed, pH 6.0, etimicin sulfate added, no EDTA, 0 h): 101.8%; Amount of component, percentage of amount at initial time (Example 10: piperacillin sodium/sulbactam sodium solution cryopreserved 7 days, thawed, pH 6.0, etimicin sulfate added, no EDTA, 1 h): 101.3%; Amount of component, percentage of amount at initial time (Example 10: piperacillin sodium/sulbactam sodium solution cryopreserved 7 days, thawed, pH 6.0, etimicin sulfate added, no EDTA, 2 h): 101.8%; Amount of component, percentage of amount at initial time (Example 10: piperacillin sodium/sulbactam sodium solution cryopreserved 7 days, thawed, pH 6.0, etimicin sulfate added, no EDTA, 4 h): 101.2%; Amount of component, percentage of amount at initial time (Example 10: piperacillin sodium/sulbactam sodium solution cryopreserved 7 days, thawed, pH 6.0, etimicin sulfate added, no EDTA, 6 h): 98.3%; Amount of component, percentage of amount at initial time (Example 10: piperacillin sodium/sulbactam sodium solution cryopreserved 7 days, thawed, pH 6.0, etimicin sulfate added, no EDTA, 8 h): 95.1%
2 | CC1(C)S[C@@H]2[C@H](NC(=O)[C@H](NC(=O)N3CCN(S(C)(=O)=O)C3=O)c3ccccc3)C(=O)N2[C@H]1C(=O)O [Mezlocillin sodium, mezlocillin sodium] |  |  |  |  |  |  |  |  |  |  |  |  |  |  |  |  |  |  | Amount of component, percentage of amount at initial time (Example 9: freeze-dried amikacin sulfate/disodium EDTA/citrate pH 6.5 powder stored 7 days at 0° C., redissolved, mezlocillin sodium added, 0 h): 94.68%; Amount of component, percentage of amount at initial time (Example 9: freeze-dried amikacin sulfate/disodium EDTA/citrate pH 6.5 powder stored 7 days at 0° C., redissolved, mezlocillin sodium added, 1 h): 95.90%; Amount of component, percentage of amount at initial time (Example 9: freeze-dried amikacin sulfate/disodium EDTA/citrate pH 6.5 powder stored 7 days at 0° C., redissolved, mezlocillin sodium added, 2 h): 71.70%; Amount of component, percentage of amount at initial time (Example 9: freeze-dried amikacin sulfate/disodium EDTA/citrate pH 6.5 powder stored 7 days at 0° C., redissolved, mezlocillin sodium added, 4 h): 91.78%; Amount of component, percentage of amount at initial time (Example 9: freeze-dried amikacin sulfate/disodium EDTA/citrate pH 6.5 powder stored 7 days at 0° C., redissolved, mezlocillin sodium added, 6 h): 93.08%; Amount of component, percentage of amount at initial time (Example 9: freeze-dried amikacin sulfate/disodium EDTA/citrate pH 6.5 powder stored 7 days at 0° C., redissolved, mezlocillin sodium added, 8 h): 97.69%
3 | NCC[C@H](O)C(=O)N[C@@H]1C[C@H](N)[C@@H](O[C@H]2O[C@H](CN)[C@@H](O)[C@H](O)[C@H]2O)[C@H](O)[C@H]1O[C@H]1O[C@H](CO)[C@@H](O)[C@H](N)[C@H]1O [Amikacin, amikacin] |  |  |  |  |  |  | 86.05 | 83.57 | 81.55 | 80.55 | 85.75 | 83.83 |  |  |  |  |  |  | Amount of component, percentage of amount at initial time (Example 9: amikacin sulfate/disodium EDTA/citrate pH 6.5 solution with fructose stored 7 days at minus 20° C., thawed, cefodizime sodium added, 0 h): 96.88%; Amount of component, percentage of amount at initial time (Example 9: amikacin sulfate/disodium EDTA/citrate pH 6.5 solution with fructose stored 7 days at minus 20° C., thawed, cefodizime sodium added, 1 h): 97.78%; Amount of component, percentage of amount at initial time (Example 9: amikacin sulfate/disodium EDTA/citrate pH 6.5 solution with fructose stored 7 days at minus 20° C., thawed, cefodizime sodium added, 2 h): 96.14%; Amount of component, percentage of amount at initial time (Example 9: amikacin sulfate/disodium EDTA/citrate pH 6.5 solution with fructose stored 7 days at minus 20° C., thawed, cefodizime sodium added, 4 h): 96.88%; Amount of component, percentage of amount at initial time (Example 9: amikacin sulfate/disodium EDTA/citrate pH 6.5 solution with fructose stored 7 days at minus 20° C., thawed, cefodizime sodium added, 6 h): 98.34%; Amount of component, percentage of amount at initial time (Example 9: amikacin sulfate/disodium EDTA/citrate pH 6.5 solution with fructose stored 7 days at minus 20° C., thawed, cefodizime sodium added, 8 h): 98.11%
4 | CCN[C@@H]1C[C@H](N)[C@@H](O[C@H]2O[C@H](CN)CC[C@H]2N)[C@H](O)[C@H]1O[C@H]1OC[C@](C)(O)[C@H](NC)[C@H]1O [Etimicin, etimicin] | 94.81 | 99.66 | 100.9 | 101.5 | 96.97 | 94.44 |  |  |  |  |  |  | 100.7 | 101.0 | 101.0 | 101.0 | 100.8 | 100.7 | Amount of component, percentage of amount at initial time (Example 6 solution (cefoperazone sodium, sulbactam sodium, etimicin sulfate, disodium EDTA, sodium citrate pH 6.5), room temperature, 0 h): 108.9%; Amount of component, percentage of amount at initial time (Example 6 solution (cefoperazone sodium, sulbactam sodium, etimicin sulfate, disodium EDTA, sodium citrate pH 6.5), room temperature, 1 h): 100.2%; Amount of component, percentage of amount at initial time (Example 6 solution (cefoperazone sodium, sulbactam sodium, etimicin sulfate, disodium EDTA, sodium citrate pH 6.5), room temperature, 2 h): 100.5%; Amount of component, percentage of amount at initial time (Example 6 solution (cefoperazone sodium, sulbactam sodium, etimicin sulfate, disodium EDTA, sodium citrate pH 6.5), room temperature, 4 h): 100.4%; Amount of component, percentage of amount at initial time (Example 6 solution (cefoperazone sodium, sulbactam sodium, etimicin sulfate, disodium EDTA, sodium citrate pH 6.5), room temperature, 6 h): 100.4%; Amount of component, percentage of amount at initial time (Example 6 solution (cefoperazone sodium, sulbactam sodium, etimicin sulfate, disodium EDTA, sodium citrate pH 6.5), room temperature, 8 h): 97.50%; Amount of component, percentage of amount at initial time (Example 14: cefoperazone sodium/tazobactam sodium solution pH 6.75, etimicin sulfate added, 0 h): 100%; Amount of component, percentage of amount at initial time (Example 14: cefoperazone sodium/tazobactam sodium solution pH 6.75, etimicin sulfate added, 1 h): 98.8%; Amount of component, percentage of amount at initial time (Example 14: cefoperazone sodium/tazobactam sodium solution pH 6.75, etimicin sulfate added, 2 h): 97.5%; Amount of component, percentage of amount at initial time (Example 14: cefoperazone sodium/tazobactam sodium solution pH 6.75, etimicin sulfate added, 4 h): 98.4%; Amount of component, percentage of amount at initial time (Example 14: cefoperazone sodium/tazobactam sodium solution pH 6.75, etimicin sulfate added, 6 h): 95.6%; Amount of component, percentage of amount at initial time (Example 14: cefoperazone sodium/tazobactam sodium solution pH 6.75, etimicin sulfate added, 8 h): 92.8%
5 | CO/N=C(\C(=O)N[C@@H]1C(=O)N2C(C(=O)O)=C(CSc3nc(=O)c(=O)[nH]n3C)CS[C@H]12)c1csc(N)n1 [Ceftriaxone sodium, ceftriaxone sodium] |  |  |  |  |  |  |  |  |  |  |  |  | 97.01 | 100.3 | 96.40 | 99.01 | 98.91 | 99.53 | Amount of component, percentage of amount at initial time (Example 8 solution (ceftriaxone sodium, tazobactam sodium, gentamicin sulfate, sodium citrate pH 6.75), room temperature, 0 h): 98.75%; Amount of component, percentage of amount at initial time (Example 8 solution (ceftriaxone sodium, tazobactam sodium, gentamicin sulfate, sodium citrate pH 6.75), room temperature, 1 h): 100.1%; Amount of component, percentage of amount at initial time (Example 8 solution (ceftriaxone sodium, tazobactam sodium, gentamicin sulfate, sodium citrate pH 6.75), room temperature, 2 h): 99.97%; Amount of component, percentage of amount at initial time (Example 8 solution (ceftriaxone sodium, tazobactam sodium, gentamicin sulfate, sodium citrate pH 6.75), room temperature, 4 h): 98.87%; Amount of component, percentage of amount at initial time (Example 8 solution (ceftriaxone sodium, tazobactam sodium, gentamicin sulfate, sodium citrate pH 6.75), room temperature, 6 h): 99.27%; Amount of component, percentage of amount at initial time (Example 8 solution (ceftriaxone sodium, tazobactam sodium, gentamicin sulfate, sodium citrate pH 6.75), room temperature, 8 h): 100.5%
